Assay results published in patent US5322842A, “Tricyclic benzodiazepine derivates, their preparation, and pharmaceutical compositions containing them” (Fujisawa Pharmaceutical Co., Ltd., priority 1990, dated 1994).

Tested on: CCK receptor (rat pancreatic membranes)
Assay: [125I] CCK-8 binding to rat pancreatic membranes
Conditions: test compound 1×10^-8 M, 50 pM 125I-CCK-8, 30 min, 37° C.
Description: [^125 I ] CCK-8 binding to rat pancreatic membranes
Rats were killed by a blow on the head and bled to death. Whole pancreas (about 0.7 g) was removed, minced in a small quantity of 50 mM Tris-HCl buffer (pH 7.4), and homogenized in 30 vol: of the buffer by a polytron homogenizer. The homogenate was centrifuged at 30000×g (16000 rpm) for 10 min. The pellet was then resuspended in the same buffer by a glass-teflon homogenizer and recentrifuged at 30000×g for 10 min. This procedure (washings) was repeated twice more. The final pellet (membrane) was suspended in incubation medium (see below) so as to obtain a final protein concentration of 2 mg/ml. All manipulations were done at 0°-4° C.
(ii) Receptor binding assay
The composition of incubation medium was as follows: 50 mM Tris-HCl (pH 7.4), 5 mM MgCl2, 5 mM dithiothreitol (DTT), 0.14 mg/ml bacitracin, and 0.2% bovine serum albumin (BSA). Freshly prepared membranes (200 μg protein) were incubated for 30 min under shaking at 37° C. in plastic tubes in 500 μl of incubation medium with 50 pM ^125 I-CCK-8 in the presence or absence of test compound (1×10^-8 M). To determine the non-specific binding, CCK-8 at 1 μM was added. […] After washing the filter with 50 mM Tris-HCl (pH 7.4) buffer containing 0.1% BSA, the radioactivity of the filter was counted. […] The effect of test compound was expressed as % inhibition of specific ^125 I-CCK-8 binding.

For CN1CCN2C(=O)C(NC(=O)c3cc4ccccc4[nH]3)N=C(c3ccccc3F)c3cccc1c32 (racemic) [Example 2, (6RS)-1-methyl-5-oxo-6-(2-indolylcarbonylamino)-8-(2-fluorophenyl)-2,3,5,6-tetrahydro-1H-[1,4]diazepino-[1,7,6-de]quinoxaline], the “Inhibition (%) of specific 125I-CCK-8 binding” value was 95.7%.
